Measured values reported in ChEMBL document CHEMBL3585263, “Novel Octahydropyrrolo[3,4-c]pyrroles Are Selective Orexin-2 Antagonists: SAR Leading to a Clinical Candidate” (J Med Chem, 2015).

How the values were obtained:
Orexin receptor type 2 [1] = target: T1, Orexin receptor type 2 (Homo sapiens, UniProt O43614); test: Binding affinity to human OX2 receptor
T1 sequence (O43614 whole entry): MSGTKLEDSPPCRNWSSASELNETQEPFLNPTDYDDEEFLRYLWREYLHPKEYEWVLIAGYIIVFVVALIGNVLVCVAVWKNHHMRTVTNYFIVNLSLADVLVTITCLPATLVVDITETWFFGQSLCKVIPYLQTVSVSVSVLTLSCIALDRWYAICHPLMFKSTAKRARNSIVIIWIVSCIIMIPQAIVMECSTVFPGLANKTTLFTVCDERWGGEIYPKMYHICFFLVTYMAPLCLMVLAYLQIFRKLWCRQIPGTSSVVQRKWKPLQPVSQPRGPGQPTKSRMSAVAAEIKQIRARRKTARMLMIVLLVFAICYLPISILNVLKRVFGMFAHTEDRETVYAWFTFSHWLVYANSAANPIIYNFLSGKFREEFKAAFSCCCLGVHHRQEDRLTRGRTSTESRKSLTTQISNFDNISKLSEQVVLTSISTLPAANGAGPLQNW

[2] = target: T2, Orexin/Hypocretin receptor type 1 (Homo sapiens, UniProt O43613); test: Binding affinity to human OX1 receptor
T2 sequence (O43613 whole entry): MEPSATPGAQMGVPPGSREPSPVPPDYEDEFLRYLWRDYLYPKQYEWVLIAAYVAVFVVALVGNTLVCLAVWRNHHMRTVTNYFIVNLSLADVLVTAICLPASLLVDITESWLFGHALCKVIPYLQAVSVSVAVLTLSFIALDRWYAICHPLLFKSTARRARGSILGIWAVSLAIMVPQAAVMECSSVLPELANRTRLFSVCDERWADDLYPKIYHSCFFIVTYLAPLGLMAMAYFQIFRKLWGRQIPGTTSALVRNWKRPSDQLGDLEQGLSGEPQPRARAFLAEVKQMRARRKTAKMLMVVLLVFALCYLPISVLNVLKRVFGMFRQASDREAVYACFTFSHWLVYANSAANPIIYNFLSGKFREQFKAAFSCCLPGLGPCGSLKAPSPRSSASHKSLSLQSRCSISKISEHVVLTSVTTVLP

[3] = target: Voltage-gated inwardly rectifying potassium channel KCNH2 (Homo sapiens, UniProt Q12809); test: Inhibition of [3H]-astemizole binding to human ERG expressed in HEK293 cells
Sequence of Voltage-gated inwardly rectifying potassium channel KCNH2 (Q12809 whole entry): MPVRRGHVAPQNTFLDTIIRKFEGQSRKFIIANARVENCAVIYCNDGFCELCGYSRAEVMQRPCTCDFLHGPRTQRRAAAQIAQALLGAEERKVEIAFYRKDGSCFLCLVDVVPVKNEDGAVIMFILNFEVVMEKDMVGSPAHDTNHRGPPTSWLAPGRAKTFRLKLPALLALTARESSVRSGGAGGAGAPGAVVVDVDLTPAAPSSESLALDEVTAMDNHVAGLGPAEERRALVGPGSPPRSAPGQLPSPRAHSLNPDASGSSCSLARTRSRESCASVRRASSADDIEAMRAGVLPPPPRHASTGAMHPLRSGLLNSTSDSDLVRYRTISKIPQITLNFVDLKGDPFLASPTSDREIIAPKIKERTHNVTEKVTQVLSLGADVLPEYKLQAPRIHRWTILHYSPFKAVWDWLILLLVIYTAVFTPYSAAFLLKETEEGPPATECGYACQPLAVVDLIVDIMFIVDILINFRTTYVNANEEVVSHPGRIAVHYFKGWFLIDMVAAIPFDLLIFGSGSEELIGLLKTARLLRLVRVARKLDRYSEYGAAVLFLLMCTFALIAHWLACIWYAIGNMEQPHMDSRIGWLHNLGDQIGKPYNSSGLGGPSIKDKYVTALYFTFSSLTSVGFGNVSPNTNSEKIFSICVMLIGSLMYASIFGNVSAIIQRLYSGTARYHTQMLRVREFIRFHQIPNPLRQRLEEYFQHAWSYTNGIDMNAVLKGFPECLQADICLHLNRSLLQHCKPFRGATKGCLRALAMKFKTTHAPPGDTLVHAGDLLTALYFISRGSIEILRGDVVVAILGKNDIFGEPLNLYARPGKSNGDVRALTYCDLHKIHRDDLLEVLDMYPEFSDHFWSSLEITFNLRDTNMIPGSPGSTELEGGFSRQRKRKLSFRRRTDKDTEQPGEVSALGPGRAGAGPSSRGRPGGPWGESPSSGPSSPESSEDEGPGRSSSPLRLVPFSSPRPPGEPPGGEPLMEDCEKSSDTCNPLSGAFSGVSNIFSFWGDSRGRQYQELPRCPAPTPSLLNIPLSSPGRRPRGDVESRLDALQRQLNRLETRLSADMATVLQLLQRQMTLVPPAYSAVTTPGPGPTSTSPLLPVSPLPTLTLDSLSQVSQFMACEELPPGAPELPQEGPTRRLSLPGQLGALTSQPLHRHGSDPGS

Orexin receptor type 2 [4] = target: T3, Orexin receptor type 2 (Rattus norvegicus, UniProt P56719); test: Binding affinity to rat OX2 receptor
T3 sequence (P56719 whole entry): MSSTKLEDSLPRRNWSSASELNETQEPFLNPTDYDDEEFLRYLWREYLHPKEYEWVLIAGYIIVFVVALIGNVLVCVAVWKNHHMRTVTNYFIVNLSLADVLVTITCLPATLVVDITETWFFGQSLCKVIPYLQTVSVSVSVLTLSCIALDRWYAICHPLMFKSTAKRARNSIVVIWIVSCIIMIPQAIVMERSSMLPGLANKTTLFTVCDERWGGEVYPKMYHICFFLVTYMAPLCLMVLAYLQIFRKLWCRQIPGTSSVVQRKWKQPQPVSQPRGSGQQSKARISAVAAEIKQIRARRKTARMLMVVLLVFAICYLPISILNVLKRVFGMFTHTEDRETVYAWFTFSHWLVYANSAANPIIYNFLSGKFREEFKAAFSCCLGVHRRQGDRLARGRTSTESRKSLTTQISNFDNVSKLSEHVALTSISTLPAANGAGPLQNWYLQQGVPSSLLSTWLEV

Rattus norvegicus [5] = test: Ex vivo OX2 receptor occupancy in Sprague-Dawley rat brain at 30 mg/kg, po after 30 mins by autoradiographic analysis; type: functional
[6] = Clearance in Sprague-Dawley rat at 10 mg/kg, po and 1 mg/kg, iv; type: ADME, organism-based; settings: in vivo
[7] = Volume of distribution at steady state in Sprague-Dawley rat at 10 mg/kg, po and 1 mg/kg, iv; type: ADME, organism-based; settings: in vivo, read-out: Vdss
[8] = Half life in Sprague-Dawley rat at 1 mg/kg, iv; type: ADME, organism-based; settings: in vivo
[9] = Oral bioavailability in Sprague-Dawley rat at 10 mg/kg; type: ADME, organism-based; settings: in vivo
[10] = Apparent permeability from basolateral to apical side in human Caco2/TC7 cells at 10 uM; settings: Caco-2
[11] = Apparent permeability from apical to basolateral side in human Caco2/TC7 cells at 10 uM; settings: Caco-2
[12] = Plasma protein binding in human at 1 uM after 6 hrs by equilibrium dialysis method; type: ADME, cell-free; settings: read-out: PPB (converted)
[13] = Plasma protein binding in rat at 1 uM after 6 hrs by equilibrium dialysis method; type: ADME, cell-free; settings: read-out: PPB (converted)
Cytochrome P450 1A2 = target: T4, Cytochrome P450 1A2 (Homo sapiens, UniProt P05177); test: Inhibition of CYP1A2 in human liver microsomes using phenacetin as substrate by LC-MS/MS analysis
T4 sequence (P05177 whole entry): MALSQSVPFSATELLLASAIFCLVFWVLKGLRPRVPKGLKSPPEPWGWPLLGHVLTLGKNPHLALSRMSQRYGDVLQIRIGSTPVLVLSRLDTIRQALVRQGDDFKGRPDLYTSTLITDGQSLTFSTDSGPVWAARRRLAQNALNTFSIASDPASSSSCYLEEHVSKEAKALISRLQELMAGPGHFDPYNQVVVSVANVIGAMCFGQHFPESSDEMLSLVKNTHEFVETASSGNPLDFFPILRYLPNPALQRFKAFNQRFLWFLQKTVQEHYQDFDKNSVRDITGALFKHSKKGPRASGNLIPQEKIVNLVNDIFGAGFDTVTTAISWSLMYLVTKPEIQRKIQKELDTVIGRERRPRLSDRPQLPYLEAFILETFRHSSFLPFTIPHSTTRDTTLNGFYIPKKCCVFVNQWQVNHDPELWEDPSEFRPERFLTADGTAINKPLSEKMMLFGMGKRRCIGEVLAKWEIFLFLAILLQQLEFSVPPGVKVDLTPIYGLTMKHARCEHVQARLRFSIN

[14] = Metabolic stability in rat liver microsomes assessed as extraction ratio at 1 uM measured over 1 hr by LC-MS/MS analysis
[15] = Metabolic stability in human liver microsomes assessed as extraction ratio at 1 uM measured over 1 hr by LC-MS/MS analysis
Rattus norvegicus [16] = test: Ex vivo OX2 receptor occupancy in Sprague-Dawley rat brain at 30 mg/kg, po after 15 mins by autoradiographic analysis; type: functional
[17] = Cmax in Sprague-Dawley rat at 10 mg/kg, po; type: ADME, organism-based; design: dose 10 mg/kg, route oral; settings: in vivo
Rattus norvegicus [18] = test: Ex vivo OX2 receptor occupancy in Sprague-Dawley rat brain at 10 mg/kg, po after 30 mins by autoradiographic analysis; type: functional
[19] = Protein binding in rat brain at 5 uM after 5 hrs by equilibrium dialysis method; type: ADME, tissue-based; settings: read-out: PB (converted)

O=C(c1ccccc1-c1ccccc1)N1C[C@@H]2CN(c3nccc(-c4ccccc4)n3)C[C@@H]2C1
Ki (Orexin receptor type 2 [1]): 421 nM
Ki [2]: 765 nM

COc1ccc(C(=O)N2C[C@@H]3CN(c4nc5ccc(C)cc5s4)C[C@@H]3C2)c(OC)c1
Ki (Orexin receptor type 2 [1]): 680 nM
Ki [2]: > 10000 nM

Cc1cc(C)nc(N2C[C@H]3CN(C(=O)c4ccc(F)cc4-n4nccn4)C[C@H]3C2)n1
IC50 [3]: > 10 µM
Ki (Orexin receptor type 2 [4]): 14 nM
Occ (Rattus norvegicus [5]): 72%
clearance [6]: 65.5 mL/min/kg
Vd [7]: 1.5 L/kg
half-life [8]: 22.2 min
bioavailability [9]: 18%
Papp B→A at 10 µM [10]: 26.8 ×10⁻⁶ cm/s
Papp A→B at 10 µM [11]: 58.1 ×10⁻⁶ cm/s
fraction unbound at 6 h, 1 µM [12]: 0.075
fraction unbound at 6 h, 1 µM [13]: 0.116
IC50 (Cytochrome P450 1A2): 9.3 µM

O=C(c1ccccc1-c1ccccc1)N1C[C@@H]2CN(c3nc4ccccc4s3)C[C@@H]2C1
Ki (Orexin receptor type 2 [1]): 687 nM
Ki [2]: 1400 nM

O=C(c1ccccc1-c1cccs1)N1C[C@@H]2CN(c3nc4ccc(F)cc4s3)C[C@@H]2C1
Ki (Orexin receptor type 2 [1]): 137 nM
Ki [2]: 267 nM

O=C(c1ccccc1-n1cccn1)N1C[C@@H]2CN(c3cnc4ccccc4n3)C[C@@H]2C1
Ki (Orexin receptor type 2 [1]): 768 nM
Ki [2]: > 10000 nM

Cc1cc(C)nc(N2C[C@H]3CN(C(=O)c4ccccc4-c4ncn[nH]4)C[C@H]3C2)n1
Ki (Orexin receptor type 2 [1]): 30 nM
Ki [2]: 3650 nM
hepatic extraction ratio at 1 h, 1 µM [14]: 0.51
hepatic extraction ratio at 1 h, 1 µM [15]: 0.73
IC50 [3]: > 10 µM
Ki (Orexin receptor type 2 [4]): 39 nM
Occ (Rattus norvegicus [16]): 0%
clearance [6]: 150 mL/min/kg
Vd [7]: 3.9 L/kg
half-life [8]: 22.8 min
bioavailability [9]: 22%

COc1cc(OC)nc(N2C[C@H]3CN(C(=O)c4ccccc4-c4cccs4)C[C@H]3C2)n1
Ki (Orexin receptor type 2 [1]): 41 nM
Ki [2]: 257 nM

COc1ccc(C(=O)N2C[C@@H]3CN(c4nc5ccc(OC)cc5s4)C[C@@H]3C2)c(OC)c1
Ki (Orexin receptor type 2 [1]): 875 nM
Ki [2]: > 10000 nM

Cc1cc(C)nc(N2C[C@H]3CN(C(=O)c4ccccc4-c4cccc(F)c4)C[C@H]3C2)n1
Ki (Orexin receptor type 2 [1]): 180 nM
Ki [2]: > 10000 nM

COc1ccc(C(=O)N2C[C@@H]3CN(c4nc5ccc(Cl)cc5s4)C[C@@H]3C2)c(OC)c1
Ki (Orexin receptor type 2 [1]): 510 nM
Ki [2]: 5300 nM

Cc1cc(C)nc(N2C[C@H]3CN(C(=O)c4ccccc4-n4nccn4)C[C@H]3C2)n1
IC50 [3]: > 10 µM
Ki (Orexin receptor type 2 [4]): 2 nM
Occ (Rattus norvegicus [5]): 67%
clearance [6]: 52.1 mL/min/kg
Vd [7]: 0.7 L/kg
half-life [8]: 16.2 min
bioavailability [9]: 8%
Cmax [17]: 148 ng/mL

O=C(c1ccccc1-c1ccccc1)N1C[C@@H]2CN(c3nc4ccc(F)cc4s3)C[C@@H]2C1
Ki (Orexin receptor type 2 [1]): 294 nM
Ki [2]: 925 nM

COc1ccnc(N2C[C@H]3CN(C(=O)c4c(C)ccc5ccccc45)C[C@H]3C2)n1
Ki (Orexin receptor type 2 [1]): 141 nM
Ki [2]: 3300 nM

Cc1ccnc(N2C[C@H]3CN(C(=O)c4ccccc4-c4ccccc4)C[C@H]3C2)n1
Ki (Orexin receptor type 2 [1]): 899 nM
Ki [2]: > 10000 nM

COc1ccc(C(=O)N2C[C@@H]3CN(c4nc5ccc(F)cc5s4)C[C@@H]3C2)c(OC)c1
Ki (Orexin receptor type 2 [1]): 746 nM
Ki [2]: > 10000 nM

Cc1cc(C)nc(N2C[C@H]3CN(C(=O)c4c(C)cccc4-n4nccn4)C[C@H]3C2)n1
IC50 [3]: 6.9 µM
Ki (Orexin receptor type 2 [4]): 12 nM

O=C(c1ccccc1-c1ccccc1)N1C[C@@H]2CN(c3cnc4ccccc4n3)C[C@@H]2C1
Ki (Orexin receptor type 2 [1]): 240 nM
Ki [2]: 1320 nM

Cc1cc(C)nc(N2C[C@H]3CN(C(=O)c4ccccc4-c4cccs4)C[C@H]3C2)n1
Ki (Orexin receptor type 2 [1]): 9.8 nM
Ki [2]: 471 nM
Ki (Orexin receptor type 2 [4]): 7 nM
Occ (Rattus norvegicus [18]): 26%

COc1ccc(-n2nccn2)c(C(=O)N2C[C@@H]3CN(c4nc(C)cc(C)n4)C[C@@H]3C2)c1
IC50 [3]: 8.1 µM
Ki (Orexin receptor type 2 [4]): 38 nM

Cc1cc(C)nc(N2C[C@H]3CN(C(=O)c4cccc(F)c4-n4nccn4)C[C@H]3C2)n1
IC50 [3]: 6 µM
Occ (Rattus norvegicus [16]): 49%
clearance [6]: 57 mL/min/kg
Vd [7]: 0.7 L/kg
half-life [8]: 12 min
bioavailability [9]: 21%
Papp B→A at 10 µM [10]: 49.7 ×10⁻⁶ cm/s
Papp A→B at 10 µM [11]: 62.3 ×10⁻⁶ cm/s
fraction unbound at 6 h, 1 µM [12]: 0.095
fraction unbound at 6 h, 1 µM [13]: 0.273
fraction unbound at 5 h, 5 µM [19]: 0.156
IC50 (Cytochrome P450 1A2): 3.1 µM

O=C(c1ccccc1-c1cccs1)N1C[C@@H]2CN(c3cnc4ccccc4n3)C[C@@H]2C1
Ki (Orexin receptor type 2 [1]): 106 nM
Ki [2]: 623 nM

Cc1cc(C)nc(N2C[C@H]3CN(C(=O)c4c(C)ccc5ccccc45)C[C@H]3C2)n1
Ki (Orexin receptor type 2 [1]): 51 nM
Ki [2]: 1800 nM

Cc1cc(C)nc(N2C[C@H]3CN(C(=O)c4cc(F)ccc4-n4nccn4)C[C@H]3C2)n1
IC50 [3]: > 10 µM

CCOc1ccc2ccccc2c1C(=O)N1C[C@@H]2CN(c3nc(C)cc(C)n3)C[C@@H]2C1
Ki (Orexin receptor type 2 [1]): 27 nM
Ki [2]: 557 nM
